Measured values from publication PMC6556873, “Rapid Covalent-Probe Discovery by Electrophile-Fragment Screening” (Journal of the American Chemical Society, 2019).
Like-named read-outs stand apart in the source and are kept apart here.

Legend:
in vitro [1] = assay: in vitro; design: species or system CCD841, HEK293; conditions: human, hb2 cells, read-out: HB-2 Cells Viability (%)
PCAF = biological target: T1, PCAF (Homo sapiens, UniProt Q92831); design: Intact protein LC/MS covalent labelling, fragments in pools of five, 200 uM each, 4 °C; conditions: 24 h, 4 °C, pool of five; 200 µM; covalent
T1 construct: gene KAT2B

BSA = biological target: T2, BSA (Bos taurus, UniProt P02769); design: Intact protein LC/MS covalent labelling, fragments in pools of five, 200 uM each, 4 °C; conditions: 24 h, 4 °C, pool of five; 200 µM; covalent
T2 construct: gene ALB

NUDT7 = biological target: T3, NUDT7 (Homo sapiens, UniProt P0C024); design: Intact protein LC/MS covalent labelling, fragments in pools of five, 200 uM each, 4 °C; conditions: 24 h, 4 °C, pool of five; 200 µM; covalent
T3 construct: residues 14-235, E. coli, pNIC28-Bsa4, N-terminal His6 tag removed by TEV, construct 26672 Da

OTUB2 (OTUB2A) = biological target: T4, OTUB2 (OTUB2A) (Homo sapiens, UniProt Q96DC9); design: Intact protein LC/MS covalent labelling, fragments in pools of five, 200 uM each, 4 °C; conditions: 24 h, 4 °C, pool of five; 200 µM; covalent
T4 construct: full length residues 1-234, E. coli BL21(DE3)-R3, His tag removed by TEV, construct 27312 Da
T4 sequence (Q96DC9 1-234): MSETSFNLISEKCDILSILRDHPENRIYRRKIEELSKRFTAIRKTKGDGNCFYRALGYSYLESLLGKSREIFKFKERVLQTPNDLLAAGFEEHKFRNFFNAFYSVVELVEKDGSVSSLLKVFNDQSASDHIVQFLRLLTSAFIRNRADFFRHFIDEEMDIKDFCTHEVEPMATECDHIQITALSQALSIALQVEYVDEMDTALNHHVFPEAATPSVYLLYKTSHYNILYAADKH

in vitro [2] = assay: in vitro; design: species or system HB2, CCD841; conditions: human, hek293 cells
in vitro [3] = assay: in vitro; design: species or system HB2, HEK293; conditions: human, ccd841 cells

T3 sequence (P0C024 14-235): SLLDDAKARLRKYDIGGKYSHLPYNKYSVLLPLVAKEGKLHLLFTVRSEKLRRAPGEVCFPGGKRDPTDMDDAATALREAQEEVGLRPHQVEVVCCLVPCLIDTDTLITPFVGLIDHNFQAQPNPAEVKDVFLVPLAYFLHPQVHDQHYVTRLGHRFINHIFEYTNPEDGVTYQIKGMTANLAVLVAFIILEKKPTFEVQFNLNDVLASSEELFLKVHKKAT
T1 sequence (Q92831 whole entry, the tested form may be a part): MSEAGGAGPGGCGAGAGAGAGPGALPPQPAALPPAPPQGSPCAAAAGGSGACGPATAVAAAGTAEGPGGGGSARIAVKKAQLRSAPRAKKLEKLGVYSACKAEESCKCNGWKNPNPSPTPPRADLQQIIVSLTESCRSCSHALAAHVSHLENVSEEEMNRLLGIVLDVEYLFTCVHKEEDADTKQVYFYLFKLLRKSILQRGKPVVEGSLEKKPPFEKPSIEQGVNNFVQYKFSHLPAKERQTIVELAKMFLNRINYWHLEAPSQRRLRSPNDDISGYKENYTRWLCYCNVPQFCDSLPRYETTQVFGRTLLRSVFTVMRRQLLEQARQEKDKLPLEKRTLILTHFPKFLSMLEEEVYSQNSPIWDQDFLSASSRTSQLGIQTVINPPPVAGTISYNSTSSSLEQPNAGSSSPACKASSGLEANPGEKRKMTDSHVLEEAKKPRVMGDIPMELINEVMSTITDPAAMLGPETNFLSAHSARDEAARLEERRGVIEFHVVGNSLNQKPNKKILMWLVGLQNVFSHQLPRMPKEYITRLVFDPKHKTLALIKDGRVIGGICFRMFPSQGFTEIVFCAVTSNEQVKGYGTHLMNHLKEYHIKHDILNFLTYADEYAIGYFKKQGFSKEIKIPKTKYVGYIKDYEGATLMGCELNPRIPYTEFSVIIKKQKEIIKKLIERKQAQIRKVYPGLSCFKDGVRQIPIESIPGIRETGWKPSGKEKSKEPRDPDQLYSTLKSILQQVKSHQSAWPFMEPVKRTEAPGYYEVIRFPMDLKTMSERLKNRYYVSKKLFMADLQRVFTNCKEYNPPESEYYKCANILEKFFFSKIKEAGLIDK
T2 sequence (P02769 whole entry, the tested form may be a part): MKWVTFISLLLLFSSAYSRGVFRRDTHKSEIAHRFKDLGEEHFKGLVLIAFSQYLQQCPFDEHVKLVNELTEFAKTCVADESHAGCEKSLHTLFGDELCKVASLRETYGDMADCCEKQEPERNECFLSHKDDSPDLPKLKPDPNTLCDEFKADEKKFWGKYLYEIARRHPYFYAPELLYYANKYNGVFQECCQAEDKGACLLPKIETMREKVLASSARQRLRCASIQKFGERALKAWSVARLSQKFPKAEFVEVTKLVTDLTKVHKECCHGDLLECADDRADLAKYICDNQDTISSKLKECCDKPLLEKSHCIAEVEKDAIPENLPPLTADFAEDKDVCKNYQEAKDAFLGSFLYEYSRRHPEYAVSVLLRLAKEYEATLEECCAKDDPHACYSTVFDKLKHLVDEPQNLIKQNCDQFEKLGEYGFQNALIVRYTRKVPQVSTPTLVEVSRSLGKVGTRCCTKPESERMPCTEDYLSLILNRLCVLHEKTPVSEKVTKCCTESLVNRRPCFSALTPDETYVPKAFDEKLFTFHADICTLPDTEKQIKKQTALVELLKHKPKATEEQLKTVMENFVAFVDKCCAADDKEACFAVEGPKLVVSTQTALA

Compound	viability at 48 h, 10 µM (in vitro [1])	PCAF (PCAF)	BSA (BSA)	NUDT7 (NUDT7)	OTUB2 (OTUB2 (OTUB2A))	viability at 48 h, 10 µM (in vitro [2])	viability at 48 h, 10 µM (in vitro [3])
O=C(CCl)Nc1ccc2c(c1)OC1(CCCCC1)O2 [PCM-0102104]	5.9%	0	0	0.08	0.47	1.4%	62.1%
Cl.O=C(CCl)NCc1cccnc1 [PCM-0102497]	106%	0	0	0	0.05	107%	90.2%
O=C(CCl)N1N=C(c2ccco2)CC1c1ccsc1 (centres unmarked) [PCM-0102659]	15.3%	0	0	0.39	0	3.5%	15.6%
C=CC(=O)N1CCC(NC(=O)c2ccncc2)CC1 [PCM-0102595]	102%	0	0	0	0	94.7%	102%
C=CC(=O)NCC1CCCS1 (centres unmarked) [PCM-0102719]	102%	0	0	0	0	86.1%	105%
O=C(CCl)Nc1ccc(Cl)c([N+](=O)[O-])c1 [PCM-0102316]	0.4%	0	0	0.28	0.36	1.1%	1%
CC(C)(C)N(Cc1cccc(F)c1)C(=O)CCl [PCM-0102833]	67.5%	0	0	0	0	22.2%	25.3%
Cl.O=C(CCl)N1CCN(Cc2c(F)cccc2Cl)CC1 [PCM-0102137]	20.8%	0	0	0	0	25.8%	59.5%
Cl.O=C(CCl)N1CCN(C2CCS(=O)(=O)C2)CC1 (centres unmarked) [PCM-0102405]	107%	0	0	0	0	90.2%	87.8%
O=C(CCl)NC(=O)NCc1ccco1 [PCM-0102494]	75.2%	0	0	0	0	86.6%	85.4%
Cc1nc(NC(=O)CCl)c(Cl)cc1Cl [PCM-0102206]	110%	0	0	0	0	101%	105%
CN(Cc1cc(Cl)cc(Cl)c1)C(=O)CCl [PCM-0102678]	8.3%	0	0	0.45	0	22%	22%
CCOC(=O)C1CCN(C(=O)CCl)CC1 [PCM-0102656]	86%	0	0	0	0	69.4%	90.3%
C=CC(=O)N1CCOCC1c1cccn1C (centres unmarked) [PCM-0102721]	102%	0	0	0	0	97.2%	92.8%
